Measured values published in patent US20240024403A1, “Compositions and Methods for Managing Weight” (Unigen, Inc., priority 2012, published 2024).

Experiment: High fat diet induced obesity (DIO) mouse model
Format: in vivo, C57CL/6J mice
Details: for Total Weight / Total Body Weight: in g (unit assumed); for Feed intake: orlistat 40 mg/kg/day oral
Experimental: C57CL/6J mice aged 4-6 weeks (Korea Research Institute of Bioscience & Biotechnology, Ohchang, Korea) were housed in Polycarbonate cages (five mice per cage) in a room with a 12 hr:12 hr light-dark cycle and an ambient temperature of 24° C. All the mice were fed a commercial chow diet for 1 week after arrival in the animal facility. Mice were then divided into normal and obesity groups and fed with normal diet (ND) and high fat diets (HFD) respectively. The HFD group was divided into multiple treatment groups: a high fat diet vehicle group (HFD), an orlistat (purchased as OTC drug Alli®) positive control treatment group (ORI, 40 mg/kg of animal weight, 2 times/day) and optionally a sibutramine positive control treatment group (10 mg/kg, 1 time/day). The HFD contained 340 g of fat/kg of HFD (310 g lard plus 30 g soybean oil; Harlan Laboratories, USA). The HFD was formulated to provide 60% of the total energy generated by the diet from fat by replacing carbohydrate energy with lard and soybean oil, whereas the normal diet (ND) group was fed a diet providing only 18% of the total diet energy from fat(Harlan Laboratories, USA).
Body weight was measured once each week and feed intake was measured twice per week. At the end of the experimental period, following a 12 hr. fasting period, the animals were anesthetized with ether, and blood was drawn from the abdominal vein. Liver and kidney and adipose tissues (epididymal, retroperitoneal, perirenal adipose tissues) were removed from each animal, rinsed with physiological saline, and weighed. Serum concentrations of glucose, total cholesterol, triglycerides, and LDL-cholesterol were determined using automatic analyzer (INTEGRA 400, Roche, Germany). Statistical significance of test results was measured using the Student's t-test.

[1] = DIO mice, week 2, G1 = 1,100 mg/kg orally twice a day
[2] = DIO mice, week 2, G1 = 1,200 mg/kg orally twice a day
[3] = DIO mice, week 3, G1 = 800 mg/kg orally twice a day
[4] = DIO mice, week 3, G1 = 1,100 mg/kg orally twice a day
[5] = DIO mice, week 3, G1 = 1,200 mg/kg orally twice a day
[6] = DIO mice, week 4, G1 = 800 mg/kg orally twice a day
[7] = DIO mice, week 4, G1 = 1,100 mg/kg orally twice a day
[8] = DIO mice, week 4, G1 = 1,200 mg/kg orally twice a day
[9] = DIO mice, week 5, G1 = 800 mg/kg orally twice a day
[10] = DIO mice, week 5, G1 = 1,100 mg/kg orally twice a day
[11] = DIO mice, week 5, G1 = 1,200 mg/kg orally twice a day
[12] = DIO mice, week 6, G1 = 800 mg/kg orally twice a day
[13] = DIO mice, week 6, G1 = 1,100 mg/kg orally twice a day
[14] = DIO mice, week 6, G1 = 1,200 mg/kg orally twice a day
[15] = DIO mice, week 7, G1 = 800 mg/kg orally twice a day
[16] = DIO mice, week 7, G1 = 1,100 mg/kg orally twice a day
[17] = DIO mice, week 7, G1 = 1,200 mg/kg orally twice a day
[18] = DIO mice, week 8, G1 = 800 mg/kg orally twice a day
[19] = DIO mice, week 8, G1 = 1,100 mg/kg orally twice a day
[20] = DIO mice, week 8, G1 = 1,200 mg/kg orally twice a day
[21] = Liver pathology, DIO mice, G1 = 800 mg/kg orally twice a day
[22] = Liver pathology, DIO mice, G1 = 1,100 mg/kg orally twice a day
[23] = ORI 40 mg/kg, DIO mice, end of study
[24] = ORI 40 mg/kg, mice fed a high fat diet (Table 44)
[25] = ORI 40 mg/kg, mice fed high fat diet
[26] = ORI, DIO mice, blood at end of study
[27] = blood at end of study, orlistat 40 mg/kg oral
[28] = liver pathology score, DIO mice, combination (10:1) 1100 mg/kg twice a day
[29] = liver pathology score, mice fed a high fat diet, Mutamba fractions 250 mg/kg oral 2 times per day, mean
[30] = liver pathology score, mice fed a high fat diet, Mutamba fractions 250 mg/kg oral 2 times per day, mean (table printed twice)

## CCCCCCCCCCC[C@@H](C[C@@H]1OC(=O)[C@H]1CCCCCC)OC(=O)[C@H](CC(C)C)NC=O [ORI, orlistat]
DIO mice, week 2, G1 = 800 mg/kg orally twice a day
  Total Weight: 34.08
[1]
  Weight Gain: −6.14
  Total Weight: 34.08
[2]
  Weight Gain: −6.14
  Total Body Weight: 34.08
DIO mice, week 2, ORI group, mean, Table 134
  Total Weight: 31.91
DIO mice, week 2, ORI group, mean, Table 135
  Weight Gain: −6.69
DIO mice, week 2, ORI group, mean, Table 145
  Total Body Weight: 34.08
DIO mice, week 2, ORI group, mean, Table 146
  Weight Gain: −6.14
[3]
  Weight Gain: −4.91
  Total Weight: 35.32
[4]
  Weight Gain: −4.91
  Total Weight: 35.32
[5]
  Weight Gain: −4.91
  Total Body Weight: 35.32
DIO mice, week 3, ORI group, mean, Table 134
  Total Weight: 33.34
DIO mice, week 3, ORI group, mean, Table 135
  Weight Gain: −5.27
DIO mice, week 3, ORI group, mean, Table 145
  Total Body Weight: 35.32
DIO mice, week 3, ORI group, mean, Table 146
  Weight Gain: −4.91
[6]
  Weight Gain: −3.84
  Total Weight: 36.38
[7]
  Weight Gain: −3.84
  Total Weight: 36.38
[8]
  Weight Gain: −3.84
  Total Body Weight: 36.38
DIO mice, week 4, ORI group, mean, Table 134
  Total Weight: 35.14
DIO mice, week 4, ORI group, mean, Table 135
  Weight Gain: −3.47
DIO mice, week 4, ORI group, mean, Table 145
  Total Body Weight: 36.38
DIO mice, week 4, ORI group, mean, Table 146
  Weight Gain: −3.84
[9]
  Weight Gain: −2.57
  Total Weight: 37.65
[10]
  Weight Gain: −2.57
  Total Weight: 37.65
[11]
  Weight Gain: −2.57
  Total Body Weight: 37.65
DIO mice, week 5, ORI group, mean, Table 134
  Total Weight: 36.27
DIO mice, week 5, ORI group, mean, Table 135
  Weight Gain: −2.34
DIO mice, week 5, ORI group, mean, Table 145
  Total Body Weight: 37.65
DIO mice, week 5, ORI group, mean, Table 146
  Weight Gain: −2.57
[12]
  Weight Gain: −1.47
  Total Weight: 38.75
[13]
  Weight Gain: −1.47
  Total Weight: 38.75
[14]
  Weight Gain: −1.47
  Total Body Weight: 38.75
DIO mice, week 6, ORI group, mean, Table 134
  Total Weight: 37.52
DIO mice, week 6, ORI group, mean, Table 135
  Weight Gain: −1.08
DIO mice, week 6, ORI group, mean, Table 145
  Total Body Weight: 38.75
DIO mice, week 6, ORI group, mean, Table 146
  Weight Gain: −1.47
[15]
  Weight Gain: −0.26
  Total Weight: 39.96
[16]
  Weight Gain: −0.26
  Total Weight: 39.96
[17]
  Weight Gain: −0.26
  Total Body Weight: 39.96
DIO mice, week 7, ORI group, mean, Table 134
  Total Weight: 38.62
DIO mice, week 7, ORI group, mean, Table 135
  Weight Gain: 0.02
DIO mice, week 7, ORI group, mean, Table 145
  Total Body Weight: 39.96
DIO mice, week 7, ORI group, mean, Table 146
  Weight Gain: −0.26
[18]
  Weight Gain: −0.23
  Total Weight: 39.99
[19]
  Weight Gain: −0.23
  Total Weight: 39.99
[20]
  Weight Gain: −0.23
  Total Body Weight: 39.99
DIO mice, week 8, ORI group, mean, Table 145
  Total Body Weight: 39.99
DIO mice, week 8, ORI group, mean, Table 146
  Weight Gain: −0.23
[21]
  Hepatocellular ballooning (0-2): 0.33
  Lobular Inflammation (0-3): 1.50
  NASH (sum): 2.17
  Steatosis (0-3): 0.33
[22]
  Hepatocellular ballooning (0-2): 0.33
  Lobular Inflammation (0-3): 1.50
  NSAH (sum): 2.17
  Steatosis (0-3): 0.33
[23]
  Organ Weight: Epididymal Fat: 1.92 g
  Organ Weight: Liver: 1.12 g
  Organ Weight: Perirenal Fat: 0.33 g
  Organ Weight: Retroperitoneal Fat: 0.47 g
  Organ Weight: Total Fat: 2.73 g
[24]
  Average Body Weight Gain: -0.031 g/day
  Average Food Intake: 2.711 g/day
  Food Efficiency Ratio (FER): −0.011
[25]
  Average Body Weight Gain: -0.031 g/day
  Average Food Intake: 2.711 g/day
ORI 40 mg/kg, mice fed high fat diet, body weight gain (g/day)/food intake (g/day)
  Food Efficiency Ratio (FER): −0.011
ORI 40 mg/kg, week 0
  Total Body Weight: 42.76
ORI 40 mg/kg, week 1
  Total Body Weight: 38.73
ORI 40 mg/kg, week 2
  Total Body Weight: 35.09
ORI 40 mg/kg, week 3
  Total Body Weight: 35.66
ORI 40 mg/kg, week 4
  Total Body Weight: 37.28
ORI 40 mg/kg, week 5
  Total Body Weight: 38.57
ORI 40 mg/kg, week 6
  Total Body Weight: 40.03
ORI 40 mg/kg, week 7
  Total Body Weight: 40.91
[26]
  F-Glu (fasting glucose): 222.43 mg/dL
  LDL-C (LDL-cholesterol): 4.27 mg/dL
  T-Chol (total cholesterol): 134.57 mg/dL
[27]
  ALT: 21.83 U/L
  AST: 65.65 U/L
  LDL-C: 4.03 mg/dL
  T-chol: 137.33 mg/dL
  TG: 27.83 mg/dL
Day 4
  Feed intake: 2.23 g/day
Day 7
  Feed intake: 2.56 g/day
Day 11
  Feed intake: 3.01 g/day
Day 14
  Feed intake: 3.18 g/day
Day 21
  Feed intake: 3.27 g/day
Day 25
  Feed intake: 3.27 g/day
Day 28
  Feed intake: 3.44 g/day
Day 32
  Feed intake: 3.27 g/day
Day 35
  Feed intake: 3.35 g/day
Day 39
  Feed intake: 3.17 g/day
Day 42
  Feed intake: 3.43 g/day
Day 46
  Feed intake: 3.18 g/day
Day 49
  Feed intake: 3.54 g/day
Day 53
  Feed intake: 3.17 g/day
End of the 8 week treatment
  weight decrease: 0.23 gram
Liver pathology score sum, DIO mice, combination (10:1) 1100 mg/kg twice a day
  NASH (sum): 3.40
[28]
  Hepatocellular ballooning (0-2): 1.00
  Lobular Inflammation (0-3): 1.40
  Steatosis (0-3): 1.00
[29]
  Hepatocellular ballooning (0-2): 0.80
  Lobular Inflammation (0-3): 1.60
  Steatosis (0-3): 1.00
[30]
  Hepatocellular ballooning (0-2): 0.80
  Lobular Inflammation (0-3): 1.60
  Steatosis (0-3): 1.00
Liver pathology, sum of scores, mice fed a high fat diet, Mutamba fractions 250 mg/kg oral 2 times per day, mean
  NSAH (sum): 3.40
Liver pathology, sum of scores, mice fed a high fat diet, Mutamba fractions 250 mg/kg oral 2 times per day, mean (table printed twice)
  NSAH (sum): 3.40
